Data published in patent publication US6706663B2, “Herbicidal 3-heterocyclic substituted benzisothiazole and benzisoxazole compounds” (Wyeth, priority 2000, dated 2004).

Key:
[1] = system: SAGPY (Sagittaria pygmaea); test: Flooded paddy, preemergence weed control; type: in vivo, L.; settings: rated 3-4 weeks after treatment, 0-9 rating scale
In short: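 Silt loam, sowing depth ≤0.5 cm; permanent flood 1.5–3 cm above soil; greenhouse culture after treatment. Readout: 0-9 visual scale (stand, vigor, malformation, size, chlorosis, appearance) vs control.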

[2] = system: CYPSE (Cyperus serotinus); test: Flooded paddy, preemergence weed control; type: in vivo, Rottb.; settings: rated 3-4 weeks after treatment, 0-9 rating scale
In short: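 Seeds or propagules were planted 0.5 cm deep in silt loam and flooded to 1.5–3 cm. Compounds in 50/50 v/v aqueous/acetone were pipetted into the flood water at about 0.0080 to 0.1250 kg/ha. After 3–4 weeks in the greenhouse, effect was rated visually on a 0–9 scale versus untreated control.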

ZEAMX (Corn, Field) = test: Postemergence herbicidal evaluation; type: in vivo, Zea mays, L.
In short: (§1)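 Seedlings grown about two weeks in flats, sprayed, then kept under standard greenhouse care. Rated visually 4–5 weeks after treatment on a 0–9 scale (stand, vigour, malformation, size, chlorosis, overall appearance) relative to untreated control; repeat tests averaged.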

[3] = system: CASOB (Cassia obtusifolia); test: Preemergence herbicidal evaluation; type: in vivo, L.; settings: rated 4-5 weeks after treatment
In short: (§2)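 Scores (0–9) reflect visual comparison with control plants for stand, vigor, malformation, size and chlorosis. Seeds in potting soil received a post-planting spray of compound in aqueous acetone and grew in a greenhouse until assessment 4–5 weeks later.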

[4] = system: CHEAL (Chenopodium album); test: Preemergence herbicidal evaluation; type: in vivo, L.; settings: rated 4-5 weeks after treatment
In short: as §2

[5] = system: AMBEL (Ambrosia artemisifolia); test: Preemergence herbicidal evaluation; type: in vivo, L.; settings: rated 4-5 weeks after treatment
In short: as §2

ORYSAT (Rice, Tebonnet) [6] = test: Preemergence herbicidal evaluation; type: in vivo, Oryza sativa, (L.) Tebonnet; settings: rated 4-5 weeks after treatment
[7] = system: ABUTH (Abutilon theophrasti); test: Preemergence herbicidal evaluation; type: in vivo, Medic.; settings: rated 4-5 weeks after treatment
ORYSAT (Rice, Tebonnet) [8] = test: Flooded paddy, post-transplant rice tolerance; type: in vivo, Oryza sativa, (L.) Tebonnet; settings: flooded paddy, post-transplant rice, rated 3-4 weeks after treatment, 0-9 rating scale
In short: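 Two ten-day-old seedlings were transplanted into silt loam, flooded and held at 1.5 to 3 cm water above the soil before herbicide treatment. Pots stayed in the greenhouse at that water level. Injury was scored visually on a 0-9 scale versus untreated control.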

[9] = system: GLXMAW (Soybean, Williams); test: Postemergence herbicidal evaluation; type: in vivo, Glycine max, (L.) Merr. cv Williams
In short: as §1

ORYSAT (Rice, Tebonnet) [10] = test: Postemergence herbicidal evaluation; type: in vivo, Oryza sativa, (L.) Tebonnet
In short: as §1

[11] = system: ECHCG (Echinochloa crus-galli); test: Postemergence herbicidal evaluation; type: in vivo, (L.) Beau
In short: as §1

GALAP (Galium aparine) = test: Postemergence herbicidal evaluation; type: in vivo
In short: as §1

[12] = system: TRZAWR (Wheat, Winter, cv Riband); test: Preemergence herbicidal evaluation; type: in vivo, Triticum aestivum; settings: rated 4-5 weeks after treatment
In short: as §2

[13] = system: CASOB (Cassia obtusifolia); test: Postemergence herbicidal evaluation; type: in vivo, L.
In short: as §1

[14] = system: CHEAL (Chenopodium album); test: Postemergence herbicidal evaluation; type: in vivo, L.
In short: as §1

[15] = system: AMBEL (Ambrosia artemisifolia); test: Postemergence herbicidal evaluation; type: in vivo, L.
In short: as §1

[16] = system: IPOHE (Ipomoea hederacea); test: Preemergence herbicidal evaluation; type: in vivo, (L.) Jacq.; settings: rated 4-5 weeks after treatment
[17] = system: ABUTH (Abutilon theophrasti); test: Postemergence herbicidal evaluation; type: in vivo, Medic.
In short: as §1

For `C[C@H]1OC(c2nsc3ccc(-n4c(=O)cc(C(F)(F)F)n(C)c4=O)cc23)O[C@@H]1C` [Compound 48, 3-[3-[(4R,5R)-4,5-dimethyl-1,3-dioxolan-2-yl]-1,2-benzisothiazol-5-yl]-1-methyl-6-(trifluoromethyl)uracil], the “herbicidal rating, SAGPY” value ([1]; rate 0.0080 kg/ha) was 0.0, the “herbicidal rating, SAGPY” value ([1]; rate 0.0320 kg/ha) was 7.5 and the “herbicidal rating, SAGPY” value ([1]; rate 0.1250 kg/ha) was 9.0. For the same compound, the “herbicidal rating, CYPSE” value ([2]; rate 0.0320 kg/ha) was 9.0, the “herbicidal rating, CYPSE” value ([2]; rate 0.1250 kg/ha) was 9.0 and the “Postemergence herbicidal rating, ZEAMX” value (ZEAMX (Corn, Field); rate 0.0320 kg/ha) was 4.5. The “Postemergence herbicidal rating, ZEAMX” value (ZEAMX (Corn, Field); rate 0.0620 kg/ha) was 5.7, the “Preemergence herbicidal rating CASOB” value ([3]; Rate 0.0620 kg/ha) was 5.0 and the “Preemergence herbicidal rating CASOB” value ([3]; Rate 0.1250 kg/ha) was 7.5. For the same compound, the “Preemergence herbicidal rating CASOB” value ([3]; Rate 0.2500 kg/ha) was 9.0, the “Preemergence herbicidal rating CHEAL” value ([4]; Rate 0.0620 kg/ha) was 9.0 and the “Preemergence herbicidal rating CHEAL” value ([4]; Rate 0.1250 kg/ha) was 9.0. The “Preemergence herbicidal rating CHEAL” value ([4]; Rate 0.2500 kg/ha) was 9.0, the “Preemergence herbicidal rating AMBEL” value ([5]; Rate 0.0620 kg/ha) was 9.0 and the “Preemergence herbicidal rating AMBEL” value ([5]; Rate 0.1250 kg/ha) was 9.0. The “Preemergence herbicidal rating AMBEL” value ([5]; Rate 0.2500 kg/ha) was 9.0, the “Preemergence herbicidal rating ORYSAT” value (ORYSAT (Rice, Tebonnet) [6]; Rate 0.0620 kg/ha) was 7.5 and the “Preemergence herbicidal rating ORYSAT” value (ORYSAT (Rice, Tebonnet) [6]; Rate 0.1250 kg/ha) was 8.0. For the same compound, the “Preemergence herbicidal rating ORYSAT” value (ORYSAT (Rice, Tebonnet) [6]; Rate 0.2500 kg/ha) was 9.0, the “Preemergence herbicidal rating ABUTH” value ([7]; Rate 0.0620 kg/ha) was 9.0 and the “Preemergence herbicidal rating ABUTH” value ([7]; Rate 0.1250 kg/ha) was 9.0. The “Preemergence herbicidal rating ABUTH” value ([7]; Rate 0.2500 kg/ha) was 9.0, the “herbicidal rating, ORYSAT (rice tolerance)” value (ORYSAT (Rice, Tebonnet) [8]; rate 0.0080 kg/ha) was 5.0 and the “herbicidal rating, ORYSAT (rice tolerance)” value (ORYSAT (Rice, Tebonnet) [8]; rate 0.0320 kg/ha) was 8.0. The “herbicidal rating, ORYSAT (rice tolerance)” value (ORYSAT (Rice, Tebonnet) [8]; rate 0.1250 kg/ha) was 9.0, the “Postemergence herbicidal rating, GLXMAW” value ([9]; rate 0.0320 kg/ha) was 8.0 and the “Postemergence herbicidal rating, GLXMAW” value ([9]; rate 0.0620 kg/ha) was 8.7. The “Postemergence herbicidal rating, ORYSAT” value (ORYSAT (Rice, Tebonnet) [10]; rate 0.0320 kg/ha) was 5.5, the “Postemergence herbicidal rating, ORYSAT” value (ORYSAT (Rice, Tebonnet) [10]; rate 0.0620 kg/ha) was 6.0 and the “Postemergence herbicidal rating, ECHCG” value ([11]; rate 0.0320 kg/ha) was 5.0. The “Postemergence herbicidal rating, ECHCG” value ([11]; rate 0.0620 kg/ha) was 3.0, the “Postemergence herbicidal rating, GALAP” value (GALAP (Galium aparine); rate 0.0320 kg/ha) was 9.0 and the “Postemergence herbicidal rating, GALAP” value (GALAP (Galium aparine); rate 0.0620 kg/ha) was 9.0. The “Preemergence herbicidal rating TRZAWR” value ([12]; Rate 0.0620 kg/ha) was 6.0, the “Preemergence herbicidal rating TRZAWR” value ([12]; Rate 0.1250 kg/ha) was 8.0 and the “Preemergence herbicidal rating TRZAWR” value ([12]; Rate 0.2500 kg/ha) was 8.0. For the same compound, the “Postemergence herbicidal rating, CASOB” value ([13]; rate 0.0320 kg/ha) was 1.0, the “Postemergence herbicidal rating, CASOB” value ([13]; rate 0.0620 kg/ha) was 7.0 and the “Postemergence herbicidal rating, CHEAL” value ([14]; rate 0.0320 kg/ha) was 9.0. The “Postemergence herbicidal rating, CHEAL” value ([14]; rate 0.0620 kg/ha) was 9.0, the “Postemergence herbicidal rating, AMBEL” value ([15]; rate 0.0320 kg/ha) was 9.0 and the “Postemergence herbicidal rating, AMBEL” value ([15]; rate 0.0620 kg/ha) was 9.0. The “Preemergence herbicidal rating IPOHE” value ([16]; Rate 0.0620 kg/ha) was 8.0, the “Preemergence herbicidal rating IPOHE” value ([16]; Rate 0.1250 kg/ha) was 8.5 and the “Preemergence herbicidal rating IPOHE” value ([16]; Rate 0.2500 kg/ha) was 9.0. For the same compound, the “Postemergence herbicidal rating, ABUTH” value ([17]; rate 0.0320 kg/ha) was 9.0 and the “Postemergence herbicidal rating, ABUTH” value ([17]; rate 0.0620 kg/ha) was 9.0.
